US20090209598A1, “Resorcine Derivatives and Their Use as Pesticides” (priority 2005, published 2009)

Experiments:
Assay in all cases: whole plant or invertebrate
Assay type in all cases: in vivo
[1] = tested on: Boll Weevil (Anthonomus grandis); conditions: eggs sprayed with 20 μl test solution, 3 to 5 days
Protocol: 1. Activity Against Boll Weevil (Anthonomus grandis)
The active compounds were formulated in 1:3 DMSO:water. 10 to 15 eggs were placed into microtiterplates filled with 2% agar-agar in water and 300 ppm formaline. The eggs were sprayed with 20 μl of the test solution, the plates were sealed with pierced foils and kept at 24-26° C. and 75-85% humidity with a day/night cycle for 3 to 5 days. Mortality was assessed on the basis of the remaining unhatched eggs or larvae on the agar surface and/or quantity and depth of the digging channels caused by the hatched larvae. Tests were replicated 2 times.

[2] = tested on: Tobacco Budworm (Heliothis virescens); conditions: 144 h, eggs sprayed with 10 μl test solution, 6 days
Protocol: 2. Activity Against Tobacco Budworm (Heliothis virescens)
The active compounds were formulated in 1:3 DMSO:water. 15 to 25 eggs were placed into microtiterplates filled with diet. The eggs were sprayed with 10 μl of the test solution, the plates were sealed with pierced foils and kept at 27-29° C. and 75-85% humidity under fluorescent light for 6 days. Mortality was assessed on the basis of the agility and of comparative feeding of the hatched larvae. Tests were replicated 2 times.

[3] = tested on: Southern Armyworm (Spodoptera Eridania), 2Nd Instar Larvae; conditions: in Phaseolus lunatus, foliar, 96 h, leaf dip, at 4 days, read-out: mortality in comparison with untreated controls
Protocol: 3. Activity Against Southern Armyworm (Spodoptera Eridania), 2Nd Instar Larvae
The active compounds were formulated for testing the activity against insects and arachnids as a 10.000 ppm solution in a mixture of 35% acetone and water, which was diluted with water, if needed.
A Sieva lima bean leaf was dipped in the test solution and allowed to dry. The leaf was then placed in a plastic perforated zip enclosure bag and ten 2nd instar larvae were added. At 4 days, observations are made of mortality and reduced feeding.

[4] = tested on: diamond back moth (plutella xylostella); conditions: foliar, cabbage leaf disk dip, third instar larvae, after 72 h, read-out: mortality in comparison with untreated controls
Protocol: 6. Activity against diamond back moth (plutella xylostella)
The active compounds were formulated in 50:50 acetone:water and 0.1% (vol/vol) Alkamuls EL 620 surfactant. A 6 cm leaf disk of cabbage leaves was dipped in the test solution for 3 seconds and allowed to air dry in a Petri plate lined with moist filter paper. The leaf disk was inoculated with 10 third instar larvae and kept at […] and 50-60% humidity for 3 days. Mortality was assessed after 72 h of treatment.

`FC(F)(F)c1ccc(OCCCCCCOc2cc(Cl)cc(OCC=C(Cl)Cl)c2)nc1` [I.2, 2-{6-[3-chloro-5-(3,3-dichloro-allyloxy)-phenoxy]-hexyloxy}-5-trifluoromethylpyridine] gave a mortality at 2500 ppm [1] of over 75%, a mortality at 2500 ppm [2] of over 75% and a mortality at 300 ppm [3] of at least 80%. It also gave a mortality at 300 ppm [4] of at least 75%.
